The assay has as its target T1, αSYN fibrils (Homo sapiens, UniProt P37840).
T1 construct: cloning of the DNA construct encoding full-length αSYN into the pET-22b vector; made in house; host or cells: Escherichia coli BL21
In words: [^3H]PiB competition binding assay on αSYN fibrils. As to conditions: two values in a cell = single determinations, read-out: Ki. Here is the method: Following the cloning of the DNA construct encoding full-length αSYN into the pET-22b vector and its transformation into BL21 cells, the expression of human αSYN from a prokaryotic host was induced overnight in Escherichia coli at 20 °C with 0.5 mM IPTG. The cells were harvested by centrifugation, resuspended in 20 mM Tris-HCl pH 7.6, 25 mM NaCl and 1× complete protease inhibitor (Roche, Basel, Switzerland), and lysed by sonication. […] Anion exchange chromatography (HiTrap Q, GE Healthcare, Chicago, Illinois) was used to trap the produced αSYN, which was eluted with NaCl 0.1 M over 20 column volumes. Fractions containing αSYN were concentrated and further purified through a Superdex 75 SEC column equilibrated with PBS. […] A 4 mg/mL solution of αSYN in 20 mM K3PO4 pH 9.1 was placed in an orbital shaker at 37 °C, 1000 rpm for 5 days to prepare P91s. The assemblies were either sonicated with cycles of 20 s on and 10 s off at 50% amplitude (Q800R3, Qsonica) for a total of 10 min or directly aliquoted in volumes of 10 μL each stored at −80 °C until use. […] The final products were aliquoted, frozen on dry ice, and stored at −80 °C until use.
Concentrations of αSYN and Aβ1-42 fibrils were as described above.
Plates were incubated on a shaker (MaxQ 6000, Thermo Fisher Scientific, Inc., Marietta, OH) at 50 rpm for 2 h at 37 °C, covered by removable sealing tapes (PerkinElmer, Waltham, MA). Vacuum filtration and read-out were performed as previously reported.[17] […] Data points were fitted using nonlinear regression analysis in GraphPad Prism (GraphPad Software, Inc., Version 8.4.0, La Jolla).

Where [1] appears, read: nonmethylated compounds, Table 1, a: mean Ki ± SEM of three data points, b: single data point.

For orientation: Ki means the dissociation constant of the complex between target and ligand, obtained from inhibition or displacement.

“And” between values parts separate entries of the source, which are not always exact repeats. Equal entries are not always repeated. Where two headings read alike, the source gives them in different places.

For the compound `Cc1cccc2sc(C=Cc3ccc(N4CCCCC4)cc3)nc12` [1a, 4-Methyl-2-(4-(piperidin-1-yl)styryl)benzo[d]thiazole], the Ki under setting [1] was 71.2 nM and 198 nM.

On to `Cc1cccc2sc(/C=C/c3ccc(N4CCCCC4)cc3)[n+](C)c12` [1b, 3,4-Dimethyl-2-(4-(piperidin-1-yl)styryl)benzo[d]thiazol-3-ium 4-nitrobenzenesulfonate], for which, for the setting “methylated compounds, Table 2”, the Ki was 36.1 nM and 83.9 nM.

`COc1cccc2sc(C=Cc3ccc(N4CCCCC4)cc3)nc12` [2a, 4-Methoxy-2-(4-(piperidin-1-yl)styryl)benzo[d]thiazole]: the Ki under setting [1] was greater than 400 nM.

Turning to `COc1cccc2sc(C=Cc3ccc(N4CCCCC4)cc3)[n+](C)c12` [2b, 4-Methoxy-3-methyl-2-(4-(piperidin-1-yl)styryl)benzo[d]thiazol-3-ium Iodide], the Ki (methylated compounds, Table 2) was 70.8 nM and 34.3 nM.

As for `Fc1cccc2sc(C=Cc3ccc(N4CCCCC4)cc3)nc12` [3a, 4-Fluoro-2-(4-(piperidin-1-yl)styryl)benzo[d]thiazole], under setting [1], the Ki is 187 nM and 110 nM.

Turning to `C[n+]1c(/C=C/c2ccc(N3CCCCC3)cc2)sc2cccc(F)c21` [3b, 4-Fluoro-3-methyl-2-(4-(piperidin-1-yl)styryl)benzo[d]thiazol-3-ium 4-nitrobenzenesulfonate], the inhibitory constant (Ki) (methylated compounds, Table 2) was greater than 400 nM.

Turning to `Cc1ccc2sc(C=Cc3ccc(N4CCCCC4)cc3)nc2c1` [4a, 5-Methyl-2-(4-(piperidin-1-yl)styryl)benzo[d]thiazole], the Ki under setting [1] is 233 nM and 88.1 nM.

Regarding `Cc1ccc2sc(C=Cc3ccc(N4CCCCC4)cc3)[n+](C)c2c1` [4b, 3,5-Dimethyl-2-(4-(piperidin-1-yl)styryl)benzo[d]thiazol-3-ium Iodide], the inhibition constant (Ki) (methylated compounds, Table 2) was 84.6 nM and 59.9 nM.

Regarding `COc1ccc2sc(C=Cc3ccc(N4CCCCC4)cc3)nc2c1` [5a, 5-Methoxy-2-(4-(piperidin-1-yl)styryl)benzo[d]thiazole], the inhibitory constant (Ki) under setting [1] is 128 nM and 188 nM.

With `COc1ccc2sc(C=Cc3ccc(N4CCCCC4)cc3)[n+](C)c2c1` [5b, 5-Methoxy-3-methyl-2-(4-(piperidin-1-yl)styryl)benzo[d]thiazol-3-ium Iodide], the Ki (methylated compounds, Table 2) was 27.5 nM and 163 nM.

Regarding `Fc1ccc2sc(C=Cc3ccc(N4CCCCC4)cc3)nc2c1` [6a, 5-Fluoro-2-(4-(piperidin-1-yl)styryl)benzo[d]thiazole], the Ki under setting [1] is 169 nM and 124 nM.

For the compound `C[n+]1c(C=Cc2ccc(N3CCCCC3)cc2)sc2ccc(F)cc21` [6b, 5-Fluoro-3-methyl-2-(4-(piperidin-1-yl)styryl)benzo[d]thiazol-3-ium Iodide], the Ki (methylated compounds, Table 2) was 435 nM and 268 nM.

Take `Cc1ccc2nc(C=Cc3ccc(N4CCCCC4)cc3)sc2c1` [7a, 6-Methyl-2-(4-(piperidin-1-yl)styryl)benzo[d]thiazole]: under setting [1], the Ki is 230 nM and 218 nM.

As for `Cc1ccc2c(c1)sc(C=Cc1ccc(N3CCCCC3)cc1)[n+]2C` [7b, 3,6-Dimethyl-2-(4-(piperidin-1-yl)styryl)benzo[d]thiazol-3-ium Iodide], the inhibitory constant (Ki) (methylated compounds, Table 2) is 16.8 nM and 23.8 nM.

Turning to `COc1ccc2nc(C=Cc3ccc(N4CCCCC4)cc3)sc2c1` [8a, 6-Methoxy-2-(4-(piperidin-1-yl)styryl)benzo[d]thiazole], under setting [1], the Ki is 110 nM and 103 nM.

For the compound `COc1ccc2c(c1)sc(C=Cc1ccc(N3CCCCC3)cc1)[n+]2C` [8b, 6-Methoxy-3-methyl-2-(4-(piperidin-1-yl)styryl)benzo[d]thiazol-3-ium Iodide], under “methylated compounds, Table 2”, the Ki is 19.7 nM and 9.6 nM.

As for `C[n+]1c(C=Cc2ccc(N3CCCCC3)cc2)sc2cc(F)ccc21` [9b, 6-Fluoro-3-methyl-2-(4-(piperidin-1-yl)styryl)benzo[d]thiazol-3-ium Iodide], the Ki (methylated compounds, Table 2) is 335 nM and 43.6 nM.

Take `Cc1cccc2nc(C=Cc3ccc(N4CCCCC4)cc3)sc12` [10a, 7-Methyl-2-(4-(piperidin-1-yl)styryl)benzo[d]thiazole]: the inhibitory constant (Ki) under setting [1] was greater than 400 nM.

In the case of `Cc1cccc2c1sc(C=Cc1ccc(N3CCCCC3)cc1)[n+]2C` [10b, 3,7-Dimethyl-2-(4-(piperidin-1-yl)styryl)benzo[d]thiazol-3-ium Iodide], the inhibition constant (Ki) (methylated compounds, Table 2) is 231 nM and 63.9 nM.

Turning to `COc1cccc2nc(C=Cc3ccc(N4CCCCC4)cc3)sc12` [11a, 7-Methoxy-2-(4-(piperidin-1-yl)styryl)benzo[d]thiazole], the inhibition constant Ki under setting [1] was greater than 400 nM.

The values above are taken from article PMC10468942, “A Fluorescent Probe as a Lead Compound for a Selective α-Synuclein PET Tracer: Development of a Library of 2-Styrylbenzothiazoles and Biological Evaluation of [^18F]PFSB and [^18F]MFSB” (ACS Omega, 2023).
